Data as given in patent US8435978B2, “Substituted sulfonamide compounds” (Gruenenthal GmbH, priority 2006, dated 2013).

Columns and labels:
human B1R receptor = target: T1, human B1R receptor (Homo sapiens, UniProt P46663); assay: Functional study on the bradykinin receptor 1 (B1R), FLIPR Ca2+ assay, hB1R cells; type: cell-based; conditions: CHO-K1, test substance 10 μM, agonist Lys-Des-Arg9-bradykinin 0.5 nM, % inhibition compared with the maximum achievable inhibition, read-out: B1R Antagonism, human [10 μM] % Inhibition
T1 construct: host or cells: CHO K1 cells (Chinese hamster ovary), stably transfected
T1 sequence (P46663 1-353): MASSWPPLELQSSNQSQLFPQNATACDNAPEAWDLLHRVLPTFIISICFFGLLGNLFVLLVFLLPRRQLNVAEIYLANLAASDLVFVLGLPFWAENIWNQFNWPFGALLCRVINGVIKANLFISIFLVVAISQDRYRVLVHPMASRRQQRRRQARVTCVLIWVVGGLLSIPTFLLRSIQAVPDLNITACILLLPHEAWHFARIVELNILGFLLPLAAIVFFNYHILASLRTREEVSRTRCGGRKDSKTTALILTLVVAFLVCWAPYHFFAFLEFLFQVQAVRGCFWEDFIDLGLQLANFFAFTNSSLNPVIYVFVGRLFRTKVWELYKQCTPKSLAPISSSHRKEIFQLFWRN
Outline: (§1)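 FLIPR Ca2+ assay in recombinant CHO K1 cells (human or rat B1R), Fluo-4 dye; 10 μM compound, 10 min, then EC-level agonist per species (0.5 nM Lys-Des-Arg9-BK human / 100 nM Des-Arg9-BK rat). Output: % inhibition vs maximum.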

B1R receptor of the rat = target: T2, B1R receptor of the rat (Rattus norvegicus, UniProt P97583); assay: Functional study on the bradykinin receptor 1 (B1R), FLIPR Ca2+ assay, rB1R cells; type: cell-based; conditions: CHO-K1, test substance 10 μM, agonist Des-Arg9-bradykinin 100 nM, % inhibition compared with the maximum achievable inhibition, read-out: B1R Antagonism, rat [10 μM] % Inhibition
T2 construct: host or cells: CHO K1 cells (Chinese hamster ovary), stably transfected
T2 sequence (P97583 1-337): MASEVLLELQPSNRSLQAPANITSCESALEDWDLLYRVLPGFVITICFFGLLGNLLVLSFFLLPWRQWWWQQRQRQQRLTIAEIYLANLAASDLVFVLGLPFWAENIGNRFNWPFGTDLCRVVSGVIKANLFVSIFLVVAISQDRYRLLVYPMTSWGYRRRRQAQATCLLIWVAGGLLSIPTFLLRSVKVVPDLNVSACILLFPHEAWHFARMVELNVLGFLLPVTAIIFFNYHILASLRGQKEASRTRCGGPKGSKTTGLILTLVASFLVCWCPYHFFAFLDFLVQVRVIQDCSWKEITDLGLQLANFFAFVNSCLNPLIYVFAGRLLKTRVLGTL
Outline: as §1

| Compound | inhibition at 10 µM (human B1R receptor) | inhibition at 10 µM (B1R receptor of the rat) |
| --- | --- | --- |
| COc1cc(C)c(S(=O)(=O)N2CCCC2COCC(=O)N2CCN(c3ccc(Cl)c(Cl)c3)CC2)c(C)c1 (centres unmarked) [Example 348, 1-(4-(3,4-dichlorophenyl)piperazin-1-yl)-2-((1-(4-methoxy-2,6-dimethylphenylsulfonyl)pyrrolidin-2-yl)methoxy)ethanone] | 87.1% | 103% |
| COc1cc(C)c(S(=O)(=O)N2CCCC2COCC(=O)N2CCN(Cc3ccc(Br)cc3)CC2)c(C)c1 (centres unmarked) [Example 350, 1-(4-(4-bromobenzyl)piperazin-1-yl)-2-((1-(4-methoxy-2,6-dimethylphenylsulfonyl)pyrrolidin-2-yl)methoxy)ethanone] | 104% | 104% |
| COc1cc(C)c(S(=O)(=O)N2CCCC2COCC(=O)N2CCN(Cc3c(C)cc(C)cc3C)CC2)c(C)c1 (centres unmarked) [Example 351, 2-((1-(4-methoxy-2,6-dimethylphenylsulfonyl)pyrrolidin-2-yl)methoxy)-1-(4-(2,4,6-trimethylbenzyl)piperazin-1-yl)ethanone] | 44% | 104% |
| COc1cc(C)c(S(=O)(=O)N2CCCC2COCC(=O)N2CCN(Cc3ccc(Cl)cc3)CC2)c(C)c1 (centres unmarked) [Example 352, 1-(4-(4-chlorobenzyl)piperazin-1-yl)-2-((1-(4-methoxy-2,6-dimethylphenylsulfonyl)pyrrolidin-2-yl)methoxy)ethanone] | 104% | 104% |
| COc1cc(C)c(S(=O)(=O)N2CCCC2COCC(=O)N2CCN(Cc3ccc(C)cc3)CC2)c(C)c1 (centres unmarked) [Example 353, 2-((1-(4-methoxy-2,6-dimethylphenylsulfonyl)pyrrolidin-2-yl)methoxy)-1-(4-(4-methylbenzyl)piperazin-1-yl)ethanone] | 103% | 102% |
| O=C(COCC1CCCN1S(=O)(=O)c1c(Cl)cccc1Cl)N1CCN(c2cccc(Cl)c2)CC1 (centres unmarked) [Example 354, 1-(4-(3-chlorophenyl)piperazin-1-yl)-2-((1-(2,6-dichlorophenylsulfonyl)pyrrolidin-2-yl)methoxy)ethanone] | 62.5% | 102% |
| Cc1ccc(N2CCN(C(=O)COCC3CCCN3S(=O)(=O)c3c(Cl)cccc3Cl)CC2)cc1C (centres unmarked) [Example 355, 2-((1-(2,6-dichlorophenylsulfonyl)pyrrolidin-2-yl)methoxy)-1-(4-(3,4-dimethylphenyl)piperazin-1-yl)ethanone] | 83.4% | 102% |
| O=C(COCC1CCCN1S(=O)(=O)c1c(Cl)cccc1Cl)N1CCN(Cc2ccc(Cl)cc2)CC1 (centres unmarked) [Example 359, 1-(4-(4-chlorobenzyl)piperazin-1-yl)-2-((1-(2,6-dichlorophenylsulfonyl)pyrrolidin-2-yl)methoxy)ethanone] | 98.6% | 103% |
| COc1cc(C)c(S(=O)(=O)N2CCCCC2COCC(=O)N2CCCN(Cc3ccccc3)CC2)c(C)c1 (centres unmarked) [Example 362, 1-(4-benzyl-1,4-diazepan-1-yl)-2-((1-(4-methoxy-2,6-dimethylphenylsulfonyl)piperidin-2-yl)methoxy)ethanone] | 103% | 102% |
| COc1cc(C)c(S(=O)(=O)N2CCCCC2COCC(=O)N2CC[C@@H](N(C)C)C2)c(C)c1 (stereo partly drawn) [Example 363, 1-((R)-3-(dimethylamino)pyrrolidin-1-yl)-2-((1-(4-methoxy-2,6-dimethylphenylsulfonyl)piperidin-2-yl)methoxy)ethanone] | 90.7% | 101% |
| COc1cc(C)c(S(=O)(=O)N2CCCCC2COCC(=O)NC2CCN(Cc3ccccc3)C2)c(C)c1 (centres unmarked) [Example 365, N-(1-benzylpyrrolidin-3-yl)-2-((1-(4-methoxy-2,6-dimethylphenylsulfonyl)piperidin-2-yl)methoxy)acetamide] | 55.6% | 99.8% |
| COc1cc(C)c(S(=O)(=O)N2CCCCC2COCC(=O)NCCCn2ccnc2)c(C)c1 (centres unmarked) [Example 366, N-(3-(1H-imidazol-1-yl)propyl)-2-((1-(4-methoxy-2,6-dimethylphenylsulfonyl)piperidin-2-yl)methoxy)acetamide] | 14.8% | 99% |
| COc1cc(C)c(S(=O)(=O)N2CCCCC2COCC(=O)N(Cc2ccc(N(C)C)cc2)C(C)C)c(C)c1 (centres unmarked) [Example 367, N-(4-(dimethylamino)benzyl)-N-isopropyl-2-((1-(4-methoxy-2,6-dimethylphenylsulfonyl)piperidin-2-yl)methoxy)acetamide] | 20.1% | 103% |
| COc1cc(C)c(S(=O)(=O)N2CCCCC2COCC(=O)N(C)C(CN2CCOCC2)c2ccccc2)c(C)c1 (centres unmarked) [Example 368, 2-((1-(4-methoxy-2,6-dimethylphenylsulfonyl)piperidin-2-yl)methoxy)-N-methyl-N-(2-morpholino-1-phenylethyl)acetamide] | 62.1% | 101% |
| COc1cc(C)c(S(=O)(=O)N2CCCCC2COCC(=O)N2CCN(c3ccccn3)CC2)c(C)c1 (centres unmarked) [Example 369, 2-((1-(4-methoxy-2,6-dimethylphenylsulfonyl)piperidin-2-yl)methoxy)-1-(4-(pyridin-2-yl)piperazin-1-yl)ethanone] | 82.3% | 101% |
| COc1cc(C)c(S(=O)(=O)N2CCCCC2COCC(=O)Nc2nccc3ccccc23)c(C)c1 (centres unmarked) [Example 370, N-(isoquinolin-1-yl)-2-((1-(4-methoxy-2,6-dimethylphenylsulfonyl)piperidin-2-yl)methoxy)acetamide] | 18.7% | 98.8% |
| COc1cc(C)c(S(=O)(=O)N2CCCCC2COCC(=O)Nc2nc3ccccc3n2C)c(C)c1 (centres unmarked) [Example 371, 2-((1-(4-methoxy-2,6-dimethylphenylsulfonyl)piperidin-2-yl)methoxy)-N-(1-methyl-1H-benzo[d]imidazol-2-yl)acetamide] | 0.38% | 101% |

Second part, the compound after the results:

| inhibition at 10 µM (human B1R receptor) | inhibition at 10 µM (B1R receptor of the rat) | Compound |
| --- | --- | --- |
| 101% | 103% | COc1cc(C)c(S(=O)(=O)N2CCCC2COCC(=O)N2CCN(Cc3ccc(Cl)c(Cl)c3)CC2)c(C)c1 (centres unmarked) [Example 349, 1-(4-(3,4-dichlorobenzyl)piperazin-1-yl)-2-((1-(4-methoxy-2,6-dimethylphenylsulfonyl)pyrrolidin-2-yl)methoxy)ethanone] |
| 43% | 103% | O=C(COCC1CCCN1S(=O)(=O)c1c(Cl)cccc1Cl)N1CCN(c2ccc(Cl)c(Cl)c2)CC1 (centres unmarked) [Example 356, 1-(4-(3,4-dichlorophenyl)piperazin-1-yl)-2-((1-(2,6-dichlorophenylsulfonyl)pyrrolidin-2-yl)methoxy)ethanone] |
| 79.4% | 104% | O=C(COCC1CCCN1S(=O)(=O)c1c(Cl)cccc1Cl)N1CCN(Cc2ccc(Cl)c(Cl)c2)CC1 (centres unmarked) [Example 357, 1-(4-(3,4-dichlorobenzyl)piperazin-1-yl)-2-((1-(2,6-dichlorophenylsulfonyl)pyrrolidin-2-yl)methoxy)ethanone] |
| 101% | 103% | O=C(COCC1CCCN1S(=O)(=O)c1c(Cl)cccc1Cl)N1CCN(Cc2ccc(Br)cc2)CC1 (centres unmarked) [Example 358, 1-(4-(4-bromobenzyl)piperazin-1-yl)-2-((1-(2,6-dichlorophenylsulfonyl)pyrrolidin-2-yl)methoxy)ethanone] |
| 96.7% | 103% | Cc1ccc(CN2CCN(C(=O)COCC3CCCN3S(=O)(=O)c3c(Cl)cccc3Cl)CC2)cc1 (centres unmarked) [Example 360, 2-((1-(2,6-dichlorophenylsulfonyl)pyrrolidin-2-yl)methoxy)-1-(4-(4-methylbenzyl)piperazin-1-yl)ethanone] |
| 93.4% | 101% | COc1cc(C)c(S(=O)(=O)N2CCCCC2COCC(=O)N(CCN(C)C)Cc2ccccc2)c(C)c1 (centres unmarked) [Example 361, N-benzyl-N-(2-(dimethylamino)ethyl)-2-((1-(4-methoxy-2,6-dimethylphenylsulfonyl)piperidin-2-yl)methoxy)acetamide] |
| 105% | 101% | COc1cc(C)c(S(=O)(=O)N2CCCCC2COCC(=O)N(C)[C@H]2CCN(Cc3ccccc3)C2)c(C)c1 (stereo partly drawn) [Example 364, N—((S)-1-benzylpyrrolidin-3-yl)-2-((1-(4-methoxy-2,6-dimethylphenylsulfonyl)piperidin-2-yl)methoxy)-N-methylacetamide] |
| -2.76% | 83.8% | COc1cc(C)c(S(=O)(=O)N2CCCCC2COCC(=O)Nc2ccncn2)c(C)c1 (centres unmarked) [Example 372, 2-((1-(4-methoxy-2,6-dimethylphenylsulfonyl)piperidin-2-yl)methoxy)-N-(pyrimidin-4-yl)acetamide] |
